Key:
Assay type in all cases: cell-based
c-Rel [1] = molecular target: T1, c-Rel (Homo sapiens, UniProt Q04864); assay: Western blot of THP-1 nuclear extracts: c-Rel
T1 construct: a western blot assay of THP1 nuclear c-Rel, p50 and p65 proteins was carried out; endogenous in cells; host or cells: THP-1; Jurkat
T1 sequence (Q04864 1-619): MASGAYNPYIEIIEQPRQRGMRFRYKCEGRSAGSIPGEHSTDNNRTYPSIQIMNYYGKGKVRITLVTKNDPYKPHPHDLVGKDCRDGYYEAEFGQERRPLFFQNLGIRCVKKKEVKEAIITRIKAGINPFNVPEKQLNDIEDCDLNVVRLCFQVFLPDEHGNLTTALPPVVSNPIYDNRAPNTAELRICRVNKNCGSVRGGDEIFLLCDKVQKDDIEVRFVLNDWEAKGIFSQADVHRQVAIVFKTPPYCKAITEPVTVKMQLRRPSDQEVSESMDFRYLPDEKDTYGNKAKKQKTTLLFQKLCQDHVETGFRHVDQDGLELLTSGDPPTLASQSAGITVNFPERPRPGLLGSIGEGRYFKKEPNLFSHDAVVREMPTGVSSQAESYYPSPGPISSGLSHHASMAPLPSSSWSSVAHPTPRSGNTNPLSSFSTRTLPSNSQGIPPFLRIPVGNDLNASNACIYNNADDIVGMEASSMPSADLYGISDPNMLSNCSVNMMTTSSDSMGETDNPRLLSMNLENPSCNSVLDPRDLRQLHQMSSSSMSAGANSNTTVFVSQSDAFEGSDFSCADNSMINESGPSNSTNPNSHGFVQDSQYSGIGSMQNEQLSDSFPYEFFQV
Description: The THP-1 cell, Jurkat cell and RAW264.7 cell line were obtained from American Type Culture Collection (Manassas, Va.). The THP-1 Jurkat cells were cultured in RPMI 1640 (ATCC, Manassas, Va.), supplemented with 10% FCS (ATCC, Manassas, Va.), and 1% penicillin/Streptomycin (Gibco-BRL, New York, N.Y.). The RAW264.7 cells were cultured in DMEM (ATCC, Manassas, Va.) supplemented with 10% FCS (ATCC, Manassas, Va.), and 1% penicillin/Streptomycin (Gibco-BRL, New York, N.Y.). The cells were stimulated with human or murine recombinant IFNγ (100 ng/ml) for 10 h followed by LPS (1 μg/ml) or SAC (0.025%) CpG ([…]) in the presence or absence of Compound 50 at different concentrations for an additional incubation.
THP-1 cells were suspended in 20 volumes of buffer A containing 10 mM KCl, 10 mM HEPES (pH 7.9), 1 mM MgCl2, 1 mM dithiothreitol (DTT), 0.1% Nonidet p40 (NP-40), and 0.5 mM phenylmethylsulfonyl fluoride (PMSF) and homogenized and centrifuged at 10,000 rpm at 4C afor 5 min. Nuclear pellets were then suspended in buffer C containing 400 mM NaCl, 20 mM HEPES 9, pH 7.9), 15 mM MgCl2, 0.2 mM EDTA, 1 mM DTT, 25% glycerol, 1 mM PMSF, and 10 ug of leupeptin, 20 ug of pepstatin, and 10 ug/ml antipain, incubated for 30 min at 4C, and centrifuged at 14,000 rpm for 20 min. The supernatants were dialyzed against buffer D containing 100 mM NaCl, 20 mM HEPES (pH 7.9), 20% glycerol, 1 mM PMSF, and 1 mM DTT.
The 10% SDS Polyacrylamide gels (Inveitrogen) were transferred to Pure Nitrocellulose membrane (BioRed, Hercules, Calif.). The membranes were blocked with 5% milk in TBST buffer and incubated with anti-c-Rel, anti-p65, anti-p50, anti-ICSBP or anti-PU-1 antibody (all the antibodies were purchased from Santa Cruz) at a dilution of 1:500 for 1 h at room temperature or overnight at 4C. […]
Of the transcription factors that have been analyzed, two factors, ICSBP and c-Rel, seem to be affected by Compound 4/Compound 50 treatment. […]

p105/p50 = assay: LPS/IFNγ-induced phosphorylation of p105/p50 in THP1 cells (immunoblot); details: THP1, 100 nM, residues Ser-927 and Ser-933
Description: In this study, we examined the effect of Compound 50 on LPS-induced phosphorylation of the NF-κB members p65 and p105/p50. THP1 monocytic cells were stimulated with IFNγ plus LPS in the presence or absence of 100 nM Compound 50 (30 min, 1 h and 3 h) and whole-cell extracts were immunoblotted using anti-phospho p65 and p105/p50 antibodies to detect the phosphorylated forms of these proteins. […] LPS/IFNγ induced phosphorylation of p65 as early as 30 minutes on residues Ser-276, Ser-468 and […]. Compound 50 had no effect on LPS/IFNγ induced phosphorylation at these sites. […] LPS/IFNγ induced phosphorylation of p105 as early as 30 minutes on residues Ser-927 and Ser-933. Compound 50 had no effect on LPS/IFNγ induced phosphorylation at these sites.

c-Rel [2] = molecular target: T1, c-Rel; assay: Nuclear c-Rel in PMA+ionomycin stimulated Jurkat T cells (immunoblot); details: 100 nM
Text: We therefore examined the accumulation of nuclear c-Rel in these cells by immunoblot analysis.

IL-2 = assay: Induction of IL-2 in PMA+ionomycin stimulated Jurkat T cells; details: previously shown

Cc1cccc(/C=N/Nc2cc(N3CCOCC3)nc(OCCc3ccccn3)n2)c1 [Compound 50, N-(3-Methyl-benzylidene)-N′-[6-morpholin-4-yl-2-(2-pyridin-2-yl-ethoxy)-pyrimidin-4-yl]-hydrazine]
level of nuclear c-Rel (c-Rel [1]; THP-1 nuclear extracts, IFN-γ plus LPS or IFN-γ plus SAC, post-treatment level equal to or below non-stimulated level): significantly reduced
transcription factor c-Rel affected by treatment (c-Rel [1]; of the transcription factors analyzed): affected
LPS/IFNγ induced phosphorylation of p105 (p105/p50): no effect
levels of nuclear c-Rel (c-Rel [2]): reduced
induction of the c-Rel dependent cytokine IL-2 (IL-2): impairs

From patent US20120021434A1, “METHOD FOR TREATING B CELL REGULATED AUTOIMMUNE DISORDERS” (Synta Pharmaceuticals Corp., priority 2005, published 2012)
